The results in this text go back to patent US20170246144A1, “METHOD OF PREVENTING OR TREATING SPINOCEREBELLAR ATAXIA BY ADMINISTRATING SILIBININ” (National Taiwan Normal University, priority 2016, published 2017).

pIC50: −log10 of the molar value.

The test system of one assay is nTBP/Q79-EGFP cells. The assay is described as follows: Dot blot and western blotting of protein aggregation, anti-TBP (N12). The class given is cell-based, Human. As to conditions: 15 μM, Dox 5 days. The method, then:
FIGS. 9A-9C show the effects of SB on protein aggregation in nTBP/Q79-EGFP cells after the induction of Dox, which were analyzed by western blotting and dot blot assays. 1.0×10^6 nTBP/Q36-EGFP cells or nTBP/Q79-EGFP cells were pretreated with 15 μM SB for 1 hour followed by the treatment of 10 μg/mL Dox. Cell lysates were analyzed using western blotting and dot blot assays with anti-TBP (N12) antibody. […] The values represent means±SD. Data were the mean values of three independent experiments.
In the present example, dot blot and western blotting methods were used to analyze whether silibinin can reduce the protein aggregation in nTBP/Q79-EGFP cells induced by Dox.
nTBP/Q36-EGFP cells and nTBP/Q79-EGFP cells were cultured in 6 cm petri-dish for 24 hours followed by the treatment of 15 μM silibinin for 1 hour and the treatment of […] and 10 μM RA for 5 days. The proteins were extracted from the treated cells and analyzed by dot blot and western blotting, wherein the primary antibody is TBP(N-12) antibody and the secondary antibody is HRP conjugated anti-rabbit antibody.
(In general: Immunoblotting shows a protein as a band on a membrane.)

The subject of assay [1] is SCA17 transgenic mice. The assay is described as follows: Footprint pattern analysis in SCA17 transgenic mice. The class given is in vivo. Conditions: 4.5 mg/kg i.p. once every 2 days. The method, then:
(§1) FIGS. 10A-10F show the effects of SB on the body weight and motor performance in SCA17 transgenic mice. Mice were grouped into wild type-saline (WT-saline), transgenic-saline (TG-saline), and transgenic-SB treatment (TG-SB) groups. Mice were injected intraperitoneally with saline or SB (4.5 mg/kg) at 8-week old once every 2 days. […] FIG. 10E and FIG. 10F show respectively the stride length of front-limb/hind-limb at the right-side and the left-side. The values represent means±SD, n=6. *p<0.05, comparing to the TG-saline group.
(§2) Since the SCA17 mice were 8 weeks old, the mice were injected intraperitoneally with silibinin in saline at 4.5 mg/kg once every 2 days, designated as TG_SB group. The mice in TG_saline group were injected with same amount of saline.
In addition, footprint pattern analysis was conducted to observe any abnormity of the gait of the mice. Such test was conducted widely to determine motor skill, coordination and balance. The hindfeet and forefeet of the mouse were coated with red and blue nontoxic paint respectively, and the mouse was allowed to walk along a runway on a fresh sheet of white paper. The distance between the centers of the hind footprint and the fore footprint, the length of the step, and the parallel distance were measured for a continuous 6 steps, excluding the steps in the beginning and at the end. The test was performed once every half month.

The subject of assay [2] is SH-SY5Y cells. The assay is described as follows: JC-1 flow cytometry of mitochondria membrane potential (MMP). The class given is cell-based, Human. Conditions: 15 μM + 100 mM MSG. The method, then: FIGS. 7A and 7B show the effects of SB on mitochondria membrane potential (MMP) in SH-SY5Y cells treated with MSG measured by JC-1 staining with a flow cytometry, wherein the control group (Ctrl) was untreated SH-SY5Y cells or the cells were treated with 100 mM MSG, 100 mM MSG+15 μM SB, 100 mM MSG+10 μM MK801 (MK) or 5 μM CCCP (disruptor of electron transport chain) for 12 hours. […] The results were shown as mean±SEM, n=3, *p<0.05, comparing to the MSG treatment group.
In the present embodiment, flow cytometry analysis was used to investigate whether silibinin can prevent the reduction of mitochondria membrane potential induced by glutamate in SH-SY5Y cells.
SH-SY5Y cells were seeded in 6 centimeter dish (1×10^6 cells/plate) for 24 hours, and then were pre-treated with 15 μM silibinin or 10 μM MK-801 for 1 hour followed by the treatment of 100 mM MSG for 12 hours. 5 μM carbonyl cyanide m-chlorophenylhydrazone (CCCP) was added to the positive control group to induce the depolarization of mitochondria membrane potential.
The treated cells were washed, centrifuged and collected, followed by PBS wash and JC-1 dye staining for 30 minutes. The stained cells were re-suspended using phosphate buffer solution and analyzed by a flow cytometry to obtain a 2-dimensional scatter plot. 10,000 cells were recorded for each experiment.
Background: A flow cytometer gives signals particle by particle.

In assay [3] the test system is SCA17 transgenic mice. The assay is described as follows: Rotarod test in SCA17 transgenic mice. The class given is in vivo. Conditions: 4.5 mg/kg i.p. once every 2 days from 8 weeks old. The method, then:
as §1, §2
At the 10th week, the rotarod test was performed to measure the motor coordination of the mice. The mice were trained prior to drug treatment. The mouse was placed on the rotarod with acceleration from 2 to 20 rpm for 5 minutes maintaining at 20 rpm for 5 more minutes to establish the baseline of the behavior of the mouse.
The condition was maintained at a linear acceleration from 4 to 30 rpm within 5 minutes during the testing period. The rotarod test was performed once every 2 weeks, since the mouse was 10 weeks old till 20 weeks old. […] The latency of fall was recorded. […]
On the technique in general: Falling from the rotarod earlier than controls is read as motor impairment.

The test system of assay [4] is SH-SY5Y cells. The assay is described as follows: Annexin V-FITC/PI flow cytometry, apoptosis induced by MSG. The class given is cell-based, Human. Conditions: 15 μM, 100 mM MSG, 24 hours. The method, then: 1×10^6 SH-SY5Y cells were treated with 100 mM MSG and 15 μM SB or 10 μM MK801 (MK) for 24 hours. Cells were stained with Annexin-V/PI and the apoptosis was measured with a flow cytometry.
In order to detect the effects of silibinin in inhibiting the apoptosis induced by glutamate in SH-SY5Y cells. The cells were measured by flow cytometry using Annexin V-FITC/propidium iodide (PI) double-labeling method.
SH-SY5Y cells were seeded in dish and were treated with 100 mM MSG in combination of 15 μM silibinin or 10 μM MK801 for 24 hours. The cells were then trypsinized and collected by centrifugation at 2,000 rpm for […] followed by double-staining with Annexin V-FITC and PI. Stained cells were analyzed with a flow cytometry (FACS Sorter, Becton, Dickinson and Company). 10,000 cells were recorded in each experiment.

Assay [5] deals with SH-SY5Y cells. As to the kind of experiment: MTT cytotoxicity of silibinin toward SH-SY5Y cells. The class given is cell-based. As to conditions: Homo sapiens, 24 hours, read-out: cyto-toxicity toward SH-SY5Y cells, IC50. From the text: FIGS. 1A and 1B show the effects of silibinin (SB) in reducing the death of SH-SY5Y cell induced by mono-sodium glutamate (MSG). […] Data were the mean values of three independent experiments. Ctrl: control group.
In order to monitor the cyto-toxicity of silibinin and its ability in resisting glutamatergic excitotoxicity, MTT colorimetric assay was used to measure the cell viability rate of neuroblastoma SH-SY5Y cells which were pre-treated with silibinin and mono-sodium glutamate (MSG).
After the treatment, 0.5 mg/mL MTT was added to the culture media, and the cells were incubated for 3 hours at 37° C. 100 μL lysis solution (10% sodium dodecyl sulfate (SDS) and 0.01N HCl) was added and the absorbance of the media was read at OD570. The percentage of cell viability was calculated as follows:
Cell viability (%)=(OD570 of experimental well/OD570 of control well)×100%

On to `COc1cc(C2Oc3cc([C@H]4Oc5cc(O)cc(O)c5C(=O)[C@@H]4O)ccc3OC2CO)ccc1O` (some centres unmarked) [silibinin], for which, in the assay with nTBP/Q79-EGFP cells, the “reduction of protein aggregation, dot blot” value worked out at 67% and the “reduction of protein aggregation, western blotting” value came out at 90%. In the assay on SCA17 transgenic mice [1], the “overlapped length of footprints, left-paw” value is 0.8±0.1 cm and the “overlapped length of footprints, right-paw” value is given as 1.1±0.1 cm. Moreover, the “MMP compared to Ctrl” value in the assay with SH-SY5Y cells [2] is 85+13%. In the assay on SCA17 transgenic mice [3], the “average time of the latency of fall, rotarod” value worked out at 393 ± 36 s. Also, the “apoptosis (apoptotic cells)” value with SH-SY5Y cells [4] was found to be 9.04%. In the assay on SH-SY5Y cells [5], the pIC50 (in general, the IC50 on a negative log10 scale, so that one unit is a factor of ten) is 4.52.
